Measurements reported in patent US5935829A, “Mutation assays involving blood cells that metabolize toxic substances” (priority 1992, dated 1999).
Like-named read-outs stand apart in the source and are kept apart here.

What was measured:
[1] = system: AHH activity of AHH-1 cells; assay type: cell-based, human
Method: (§1) The quantity of 3-hydroxy BaP was measured by fluorescent intensity activated by a light wavelength of 396 nm and measured at 522 nm using a spectrofluorimeter (Farrand Model Mk-1, Valhalla, N.Y.).
After growth of the cells in culture medium with gentamycin and kanamycin, the cells were plated in microtiter plates at a density of about 0.2 cells per well. Colonies were isolated and characterized for BaP-induced growth inhibition. A total of 47 colonies were isolated and contacted with 40 uM BaP. In its normal state, BaP is not highly cytotoxic or mutagenic; however, if metabolized by oxidative activity into one or more epoxides or phenols, the metabolites tend to be toxic and mutagenic.
6-TG resistant clones were characterized for AHH activity by measuring the rate of production of 3-OH benzopyrene, a fluorescent metabolite of BaP which is created by AHH activity.

[2] = in vitro; assay type: cell-based, human; conditions: human, g6-a5 cells, G6-A5 clone, read-out: Relative Survival
Description: (§2) Following the benzo(ghi)perylene selection and after plating in microtitre plates, colonies were isolated and analyzed for MFO activity and PE. […] Several of these subclones were used to detect the mutagenic activity of benzo(a)pyrene, a chemical known to require oxidative metabolism for mutagenicity.

[3] = system: G6-A5 cells; assay: in vitro; assay type: cell-based, human; conditions: several subclones, exposed directly
Description: as §2

[4] = system: AHH activity of 6-TG resistant AHH-1 clones; assay: AHH activity induced by BaP in AHH-1 cells resistant to 6-TG; assay type: cell-based, human; conditions: 10 μM BaP, 24 hours
Method: as §1, with “3-hydroxy BaP per 10^6 cells per minute. The” for “The”, “N.Y.). This could be induced to about 0.3 pmole of 3-hydroxy BaP per 10^6 cells per minute.” for “N.Y.).”
6-TG resistant clones were characterized for AHH activity by measuring the rate of production of 3-OH benzopyrene, a fluorescent metabolite of BaP which is created by AHH activity. […].

[5] = system: AHH-1 cells
[6] = in vitro; conditions: human, ahh-1 cells, RELATIVE SURVIVAL; for viability at 48 h, 10 µM: 10 μM × 48 hours; for viability at 48 h, 20 µM: 20 μM × 48 hours
[7] = system: human cells; conditions: literature ref. 15; cited from earlier work
[8] = 0.3 μM × 24 hours, induction BP

## c1ccc2c(c1)cc1ccc3cccc4ccc2c1c34 [BaP, benzo(a)pyrene]
[1]
  AHH Activity Induced by B(α)P: 2.04 pmole 3OHBP/10^6 cells/minute
  induction of AHH activity: inducers
[2]; 0.1 μg/ml
  viability at 24 h: 37%
[2]; 0.2 μg/ml, 24 hour treatment
  viability at 24 h: 41%
[3]
  mutation of G6-series subclones to a statistically significant degree: mutated to a statistically significant degree
[4]; clone BP-1
  AHH Activity Induced by B(α)P: 1.64 pmole 3OHBP/10^6 cells/minute
[4]; clone BP-2
  AHH Activity Induced by B(α)P: 2.36 pmole 3OHBP/10^6 cells/minute
[4]; clone BP-3
  AHH Activity Induced by B(α)P: 1.88 pmole 3OHBP/10^6 cells/minute
[4]; clone BP-4
  AHH Activity Induced by B(α)P: 2.76 pmole 3OHBP/10^6 cells/minute
[4]; clone BP-5
  AHH Activity Induced by B(α)P: 0.72 pmole 3OHBP/10^6 cells/minute
[4]; clone BP-6
  AHH Activity Induced by B(α)P: 1.88 pmole 3OHBP/10^6 cells/minute
[4]; clone BP-7
  AHH Activity Induced by B(α)P: 1.84 pmole 3OHBP/10^6 cells/minute
[4]; mean TG^R clones
  AHH Activity Induced by B(α)P: 1.87 pmole 3OHBP/10^6 cells/minute
[5]; [8]
  MUTANT FRACTION × 10^6, MEAN ± STD.DEV.: 3.4 ± 0.5 × 10^6
[5]; 1 μM × 24 hours, induction BP
  MUTANT FRACTION × 10^6, MEAN ± STD.DEV.: 4.9 ± 0.9 × 10^6
[5]; 3 μM × 24 hours, induction BP
  MUTANT FRACTION × 10^6, MEAN ± STD.DEV.: 6.1 ± 1 × 10^6
[5]; 10 μM × 24 hours, induction BP
  MUTANT FRACTION × 10^6, MEAN ± STD.DEV.: 12.7 ± 1.5 × 10^6
[5]; 30 μM × 24 hours, induction BP
  MUTANT FRACTION × 10^6, MEAN ± STD.DEV.: 18.2 ± 2.1 × 10^6
[6]; [8]
  viability at 24 h, 0.3 µM: 87%
[6]; 1 μM × 24 hours, induction BP
  viability at 24 h, 1 µM: 102%
[6]; 3 μM × 24 hours, induction BP
  viability at 24 h, 3 µM: 74%
[6]; 10 μM × 24 hours, induction BP
  viability at 24 h, 10 µM: 82%
[6]; 30 μM × 24 hours, induction BP
  viability at 24 h, 30 µM: 75%

## c1cc2cccc3c4cccc5cccc(c(c1)c23)c54 [Per, perylene]
[5]; 10 μM × 48 hours, induction BNF
  MUTANT FRACTION × 10^6, MEAN ± STD.DEV.: 2.7 ± 0.6 × 10^6
[5]; 10 μM × 48 hours, induction none
  MUTANT FRACTION × 10^6, MEAN ± STD.DEV.: 3.2 ± 0.75 × 10^6
[5]; 20 μM × 48 hours, induction BNF
  MUTANT FRACTION × 10^6, MEAN ± STD.DEV.: 2.7 ± 0.6 × 10^6
[5]; 20 μM × 48 hours, induction none
  MUTANT FRACTION × 10^6, MEAN ± STD.DEV.: 1.9 ± 0.5 × 10^6
[6]; induction BNF
  viability at 48 h, 10 µM: 89%
  viability at 48 h, 20 µM: 89%
[6]; induction none
  viability at 48 h, 10 µM: 93%
  viability at 48 h, 20 µM: 95%
[7]
  mutagenicity for human cells: not a mutagen for human cells
